Tests used:
CHO cells [1] = assay: Effect of addition of L-cysteine derivatives to feed medium on proliferation of CHO cells and antibody production (3); format: cell-based, Chinese hamster; conditions: 58 mM in feed medium, 11 days culture, compared to the case without addition of L-cysteine; for cell count: FIG. 6; for antibody production amount: FIG. 7
Procedure: (§1) CELLiST (registered trademark) Basal media (Ajinomoto Co., Ltd.: BASAL3; containing 1.3 mM L-cysteine) was added with LR3-IGF-1 (SIGMA-ALDRICH: I1271-1MG, final concentration of 50 μg/mL) and L-Glutamine (Thermo Fisher SCIENTIFIC: 25030081, final concentration of 6 mM), to prepare a basal medium.
Feed media each containing 82 g/L Cellvento (registered trademark) Feed-210 (Merck: 1.02488.0005), 70 g/L glucose (Wako Pure Chemical Industries, Ltd.: 043-31163), and L-cysteine, Compound 4, Compound 8, Compound 9, or Compound 11 each at 58 mM were prepared. In addition, a feed medium without addition of L-cysteine, which only contained 82 g/L Cellvento (registered trademark) Feed-210 and 70 g/L glucose, was prepared. Separately, a tyrosine concentrate (L-tyrosine disodium salt dihydrate (Merck: 122666-87-9) 74.82 g/L, pH 11.3) was prepared.
A 30 mL-aliquot of a CHO cell suspension adjusted to 3×10^5 cells/mL using the prepared basal medium was seeded into 125 mL-volume flasks (CORNING: 431143), and cultured for 11 days. The culture was carried out with n=2 for all experimental groups. The culture temperature was 37° C. and the agitation speed was 110 rpm. A 1.8 mL-aliquot of each of the prepared feed media and a 120 μL-aliquot of the tyrosine concentrate were added on days 4, 7, and 9 from the start of the culture. A cell culture broth was sampled on days 4, 7, 9, and 11 from the start of the culture, and the viable cell count was measured using a viable/dead cells autoanalyzer Vi-CELL™ XR (Beckman Coulter), and the antibody production amount was measured using Octet QK (FORTEBIO).

[2] = Stability of L-cysteine derivatives in buffer solution (crystal precipitation by visual observation); format: physicochemical; conditions: 58 mM in PBS buffer pH 7.0 to 7.2; for relative stability compared with L-cysteine: 5° C. in the dark; for crystal precipitation, Days 0 / crystal precipitation, Days 3 / crystal precipitation, Days 7 / crystal precipitation, Days 14 / crystal precipitation, Days 21 / crystal precipitation, Days 24: stored at 5° C. in the dark; for crystal precipitation, Days 0: day 0; for crystal precipitation, Days 3: day 3; for crystal precipitation, Days 7: day 7; for crystal precipitation, Days 14: day 14; for crystal precipitation, Days 21: day 21; for crystal precipitation, Days 24: day 24
Procedure: In this Example, the stability of L-cysteine derivatives in a buffer solution was evaluated.
In the table, “+” to “++++” indicate that crystal precipitation was observed, and the higher the number of “+”, the greater the degree of precipitation.

CHO cells [3] = assay: Effect of addition of L-cysteine derivatives to feed medium on proliferation of CHO cells and antibody production (2); format: cell-based, Chinese hamster; conditions: for proliferation performance of cells: 14.5 mM in feed medium, L-cysteine in the feed medium substituted; for proliferation performance of cells / cell count, dependence on concentration: FIG. 4; for IgG production amount: 58.0 mM in feed medium; for IgG production amount / IgG production amount, dependence on concentration: FIG. 5; for cell count, dependence on concentration / IgG production amount, dependence on concentration: 14.5, 29, 58 mM in feed medium
Procedure: as §1
Feed media each containing 82 g/L Cellvento (registered trademark) Feed-210 (Merck: 1.02488.0005), 70 g/L glucose (Wako Pure Chemical Industries, Ltd.: 043-31163), and L-cysteine, Compound 3S, or Compound 3R each at 14.5 mM, 29 mM, or 58 mM were prepared. Separately, a tyrosine concentrate (L-tyrosine disodium salt dihydrate (Merck: 122666-87-9) 74.82 g/L, pH 11.3) was prepared.
A 3 mL-aliquot of a CHO cell suspension adjusted to 3×10^5 cells/mL using the prepared basal medium was seeded into a 6 well plate (CORNING, Cat. No. CLS3471), and cultured for 14 days. The culture was carried out with n=2 for all experimental groups. The culture temperature was 37° C. and the agitation speed was 110 rpm. A 0.18 mL-aliquot of each of the prepared feed media and a 12 μL-aliquot of the tyrosine concentrate were added on days 4, 7, 9, and 11 from the start of the culture. A cell culture broth was sampled on days 4, 7, 9, 11, and 14 from the start of the culture, and the viable cell count was measured using a viable/dead cells autoanalyzer Vi-CELL™ XR (Beckman Coulter), and the antibody production amount on days 11 and 14 from the start of the culture was measured using Octet QK (FORTEBIO).

Row | SMILES | relative stability compared with L-cysteine [2] | crystal precipitation, Days 0 [2] | crystal precipitation, Days 3 [2] | crystal precipitation, Days 7 [2] | crystal precipitation, Days 14 [2] | crystal precipitation, Days 21 [2] | crystal precipitation, Days 24 [2] | cell count (CHO cells [1]) | antibody production amount (CHO cells [1]) | ability to substitute for L-cysteine (CHO cells [3]; in feed medium) | proliferation performance of cells (CHO cells [3]) | IgG production amount (CHO cells [3]) | cell count, dependence on concentration (CHO cells [3]) | IgG production amount, dependence on concentration (CHO cells [3])
1 | COC(=O)C1(CC(C)C)N[C@H](C(=O)O)CS1 (mixture of isomers) [Compound 11, (2RS,4R)-2-i-butyl-2,4-thiazolidinedicarboxylic acid 2-methyl ester] |  |  |  |  |  |  |  | decreased | decreased |  |  |  |  | 
2 | CC(C)OC(=O)C1(C)N[C@H](C(=O)O)CS1 (mixture of isomers) [Compound 4, (2RS,4R)-2-methyl-2,4-thiazolidinedicarboxylic acid 2-i-propyl ester] | more stable than L-cysteine | − | − | − | − | − | − | higher than those of the case without addition of L-cysteine | higher than those of the case without addition of L-cysteine |  |  |  |  | 
3 | CC(C)(C)OC(=O)C1(C)N[C@H](C(=O)O)CS1 (mixture of isomers) [Compound 6, (2RS,4R)-2-methyl-2,4-thiazolidinedicarboxylic acid 2-t-butyl ester] | more stable than L-cysteine | − | − | − | − | − | − |  |  |  |  |  |  | 
4 | COC(=O)[C@@]1(C)N[C@H](C(=O)O)CS1 (stereo in doubt) [Compound 3, (2RS,4R)-2-methyl-2,4-thiazolidinedicarboxylic acid 2-methyl ester] |  |  |  |  |  |  |  |  |  | able to substitute for L-cysteine |  |  |  | 
5 | CCOC(=O)C1N[C@H](C(=O)O)CS1 (mixture of isomers) [Compound 8, (2RS,4R)-2,4-thiazolidinedicarboxylic acid 2-ethyl ester] | more stable than L-cysteine | − | − | − | − | − | − | higher than those of the case without addition of L-cysteine | higher than those of the case without addition of L-cysteine |  |  |  |  | 
6 | COC(=O)C1(Cc2ccc(O)cc2)N[C@H](C(=O)O)CS1 (mixture of isomers) [Compound 9, (2RS,4R)-2-(4-hydroxyphenyl)methyl-2,4-thiazolidinedicarboxylic acid 2-methyl ester] | more stable than L-cysteine | − | − | − | − | − | − | higher than those of the case without addition of L-cysteine | higher than those of the case without addition of L-cysteine |  |  |  |  | 

Second part, led by results:

Row | relative stability compared with L-cysteine [2] | crystal precipitation, Days 0 [2] | crystal precipitation, Days 3 [2] | crystal precipitation, Days 7 [2] | crystal precipitation, Days 14 [2] | crystal precipitation, Days 21 [2] | crystal precipitation, Days 24 [2] | SMILES | cell count (CHO cells [1]) | antibody production amount (CHO cells [1]) | ability to substitute for L-cysteine (CHO cells [3]; in feed medium) | proliferation performance of cells (CHO cells [3]) | IgG production amount (CHO cells [3]) | cell count, dependence on concentration (CHO cells [3]) | IgG production amount, dependence on concentration (CHO cells [3])
7 | more stable than L-cysteine | − | − | − | − | − | − | COC(=O)[C@@]1(C)N[C@H](C(=O)O)CS1 (stereo in doubt) [Compound 3S, (2RS,4R)-2-methyl-2,4-thiazolidinedicarboxylic acid 2-methyl ester] |  |  |  | approximately 70% | equivalent to that of the group adding 14.5 mM or 29.0 mM of L-cysteine hydrochloride monohydrate | increased in a concentration-dependent manner | increased in a concentration-dependent manner
8 | more stable than L-cysteine | − | − | − | − | − | − | COC(=O)[C@]1(C)N[C@H](C(=O)O)CS1 (stereo in doubt) [Compound 3R, (2RS,4R)-2-methyl-2,4-thiazolidinedicarboxylic acid 2-methyl ester] |  |  |  | approximately 70% | equivalent to that of the group adding 14.5 mM or 29.0 mM of L-cysteine hydrochloride monohydrate | increased in a concentration-dependent manner | increased in a concentration-dependent manner
